Patent publication US20120029054A1, “RNA Interference Mediated Inhibition of GATA Binding Protein 3 (GATA3) Gene Expression Using Short Intefering Nucleic Acid (siNA)” (Merck Sharp & Dohme Corp., priority 2009, published 2012)
[invAb] = inverted abasic unit; m = 2'-O-methyl; r = 2'-OH (RNA); f = 2'-fluoro

Tests used:
GATA3 mRNA [1] = test: GATA3 mRNA knock-down (Taqman qRT-PCR) after RNAiMax transfection of human MCF7 cells; screen and IC50 dose response; format: cell-based; settings: 10 nM siNA, MCF7 cells, 24 hrs
Description: MCF7 (human; ATCC cat# HTB-22): Cells were cultured at 37° C. in the presence of 5% CO2 and grown in Eagle's Minimum Essential medium with supplemented with fetal bovine serum at a final concentration of 10% and 100 μg/mL of streptomycin and 100 U/mL penicillin.
(§1) Cells were plated in all wells of a tissue-culture treated, 96-well plate at a final count of 5000 cells/well in 100 μL of the appropriate culture media. The cells were cultured for 24 hours after plating at 37° C. in the presence of 5% CO2.
(§2) After 24 hours, complexes containing siNA and RNAiMax were created as follows: A solution of RNAiMax diluted 33-fold in OPTI-MEM was prepared. In parallel, solutions of the siNAs for testing were prepared to a final concentration of 120 nM in OPTI-MEM. After incubation of RNAiMax/OPTI-MEM solution at room temperature for 5 min, an equal volume of the siNA solution and the RNAiMax solution were added together for each of the siNAs.
(§3) This solution was incubated at room temperature for 20 minutes. After incubation, 20 uL of the solution was added to each of the relevant wells. The final concentration of siNA in each well was 10 nM and the final volume of RNAiMax in each well was 0.3 ul.
(§4) The time of incubation with the RNAiMax-siNA complexes was 24 hours and there was no change in media between transfection and harvesting, unless otherwise indicated.
(§5) RNA was extracted from a 96-well plate using the TaqMan® Gene Expression Cells-to-CT™ Kit (Cat#4399002) with a modified protocol. Briefly, a 60 uL (1 plate) or 110 uL (2 plates) of the Lysis Solution with DNase I was dispensed into each well of the Lysis Buffer Plate (twin.tec full skirt plate). The lysis buffer and stop plates were stored at 4° C. until the cells were washed.
(§6) The plate was spun at 1100 rpm for 5 minutes. The culture medium was aspirated and discarded from the wells of the culture plate. The lysis was performed automatically using a BioMek FX instrument and method. After the Biomek method was completed, the lysis plate was incubated for 2 min. at room temperature. The lysis plate can be stored for 2 hours at 4° C., or at −20° C. or −80° C. for two months.
(§7) Each well of the reverse transcription plate required 10 uL of 2× reverse transcriptase Buffer, 1 uL of 20× reverse transcription enzyme and 2 uL of nuclease-free water. The reverse transcription master mix was prepared by mixing 2× reverse transcription buffer, 20× reverse transcription enzyme mix, and nuclease-free water. 13 uL of the reverse transcription master mix was dispensed into each well of the reverse transcription plate (semi-skirted). A separate reverse transcription plate was prepared for each cell plate. The plate was loaded onto a Biomek NX or Biomek FX Dual-96 and the Biomek method was run. The program is programmed to automatically added 7 uL of lysate from the cell lysis procedure described above into each well of the reverse transcription plate. The plate is sealed and spun on a centrifuge (1000 rpm for 30 seconds) to settle the contents to the bottom of the reverse transcription plate. The plate is placed in a thermocycler at 37° C. for 60 min, 95° C. for 5 min, and 4° C. until the plate is removed from the thermocycler. Upon removal, if not used immediately, the plate was frozen at −20° C.
(§8) A series of probes and primers were used to detect the various mRNA transcripts of the genes of β-Actin (human cell line only), and of GATA3 and GAPDH in mouse and human cell lines. All Taqman probes and primers for the experiments here-in described were supplied as pre-validated sets by Applied Biosystems, Inc. (see Table 2).
(§9) The assays were performed on an ABI 7900 instrument, according to the manufacturer's instructions. A TaqMan Gene Expression Master Mix (provided in the Cells-to-CT™, Applied Biosystems, Cat #4399002) was used. The PCR reactions were carried out at 50° C. for 2 min, 95° C. for 20 min followed by 40 cycles at 95° C. for 15 secs and 60° C. for 1 min. […]

GATA3 mRNA [2] = test: GATA3 mRNA knock-down (Taqman qRT-PCR) after RNAiMax transfection of mouse RAG cells; format: cell-based; settings: 10 nM siNA, 24 hrs, average of 2 experiments
Description: RAG (murine; ATCC cat# CCL-142): Cells were cultured at 37° C. in the presence of 5% CO2 and grown in Eagle's Minimum Essential medium with supplemented with 10% of fetal bovine serum, 100 μg/mL of streptomycin, and 100 U/mL penicillin.
as §1, §2, §3, §4, §5, §6, §7, §8, §9

**Q.** What does the source list for “30281-DC: GATA3 siNA duplex, human/mouse site 904: sense B ccuucuccAAGAcGuccAu TTB (SEQ 115), antisense AUGGAcGucuuGGAGAAGGUU (SEQ 116) (sense CCUUCUCCAAGACGUCCAUTT; antisense AUGGACGUCUUGGAGAAGGUU; sense: DNA at AGT, 2'-fluoro at CU, [invAb] at 5' end, 3' end, backbone not given here; antisense: sugars from the 5' end rrrmmfmffffmmmmmmmmmm, backbone not given here)”?
**A.** % KD Human (GATA3 mRNA [1]; average of 3 experiments): −14 ± 7%; % KD Mouse (GATA3 mRNA [2]): 13 ± 3%

**Q.** Which “% KD Human” value (GATA3 mRNA [1]; average of 3 experiments) does the source give for “30250-DC: GATA3 siNA duplex, site 727: sense B GcAAccAcGucccGcccuA TTB (SEQ 53), antisense UAGGGcGGGAcGuGGuuGcUU (SEQ 54) (sense GCAACCACGUCCCGCCCUATT; antisense UAGGGCGGGACGUGGUUGCUU; chemistry not fully specified)” here?
**A.** Its value is 6 ± 9%.

**Q.** What about the “% KD Mouse” value (GATA3 mRNA [2]) of the same substance?
**A.** Its value is −9 ± 8%.

**Q.** For “30277-DC: GATA3 siNA duplex, mouse site 1535: sense B cAuccuGcGcGAAcuGucA TTB (SEQ 107), antisense UGAcAGuucGcGcAGGAuGUU (SEQ 108) (sense CAUCCUGCGCGAACUGUCATT; antisense UGACAGUUCGCGCAGGAUGUU; sense: DNA at AGT, 2'-fluoro at CU, [invAb] at 5' end, 3' end, backbone not given here; antisense: sugars from the 5' end rrrfmmfffmfmfmmmmfmmm, backbone not given here)”, which “% KD Human” value (GATA3 mRNA [1]; average of 3 experiments) is on record?
**A.** The value was −4 ± 7%.

**Q.** What about the “% KD Mouse” value (GATA3 mRNA [2]) of the same substance?
**A.** Its value is 26 ± 4%.

**Q.** Which “% KD Human” value (GATA3 mRNA [1]; average of 3 experiments) does the source give for “30283-DC: GATA3 siNA duplex, human/mouse site 3067: sense B GucccuGuAAuuGuuGuuu TTB (SEQ 119), antisense AAAcAAcAAuuAcAGGGAcUU (SEQ 120) (sense GUCCCUGUAAUUGUUGUUUTT; antisense AAACAACAAUUACAGGGACUU; sense: DNA at AGT, 2'-fluoro at CU, [invAb] at 5' end, 3' end, backbone not given here; antisense: sugars from the 5' end rrrfmmfmmffmfmmmmmfmm, backbone not given here)” here?
**A.** The value was 32 ± 5%.

**Q.** And the “% KD Mouse” value (GATA3 mRNA [2])?
**A.** The value was 47 ± 1%.

**Q.** With “30284-DC: GATA3 siNA duplex, human/mouse site 2155: sense B uGcuGAAcAuuGcAuAuAA TTB (SEQ 121), antisense UUAuAuGcAAuGuucAGcAUU (SEQ 122) (sense UGCUGAACAUUGCAUAUAATT; antisense UUAUAUGCAAUGUUCAGCAUU; sense: DNA at AGT, 2'-fluoro at CU, [invAb] at 5' end, 3' end, backbone not given here; antisense: sugars from the 5' end rrrfmfmfmmfmfffmmfrmm, backbone not given here)” as the substance, how does the “% KD Human” value (GATA3 mRNA [1]; average of 3 experiments) read?
**A.** The value was 46 ± 5%.

**Q.** What about the “% KD Mouse” value (GATA3 mRNA [2]) of the same substance?
**A.** Its value is 65 ± 0%.

**Q.** What does the source list for “30285-DC: GATA3 siNA duplex, human/mouse site 2129: sense B GGucucuAGuGcuGuGAAA TTB (SEQ 123), antisense UUUcAcAGcAcuAGAGAccUU (SEQ 124) (sense GGUCUCUAGUGCUGUGAAATT; antisense UUUCACAGCACUAGAGACCUU; sense: DNA at AGT, 2'-fluoro at CU, [invAb] at 5' end, 3' end, backbone not given here; antisense: sugars from the 5' end rrrfmfmmfmffmmmmmffmm, backbone not given here)”?
**A.** % KD Human (GATA3 mRNA [1]; * Hs00231122_m1 Taqman Assay): 49 ± 11* %; % KD Human (GATA3 mRNA [1]; ** Hs00922328_m1 Taqman Assay): 52 ± 10** %; % KD Mouse (GATA3 mRNA [2]): 69 ± 1%

**Q.** “30245-DC: GATA3 siNA duplex, site 1829: sense B GccAuccAGccuGuccuuu TTB (SEQ 43), antisense AAAGGAcAGGcuGGAuGGcUU (SEQ 44) (sense GCCAUCCAGCCUGUCCUUUTT; antisense AAAGGACAGGCUGGAUGGCUU; chemistry not fully specified)” was tested. Which “% KD Human” value (GATA3 mRNA [1]; average of 3 experiments) did it give?
**A.** The value was 24 ± 2%.

**Q.** And the “% KD Mouse” value (GATA3 mRNA [2])?
**A.** The value was 20 ± 7%.

**Q.** For “30276-DC: GATA3 siNA duplex, mouse site 678: sense B GGGccucGGccAuucGuAc TTB (SEQ 105), antisense GUAcGAAuGGccGAGGcccUU (SEQ 106) (sense GGGCCUCGGCCAUUCGUACTT; antisense GUACGAAUGGCCGAGGCCCUU; sense: DNA at AGT, 2'-fluoro at CU, [invAb] at 5' end, 3' end, backbone not given here; antisense: sugars from the 5' end rrrfmmmfmmffmmmmfffmm, backbone not given here)”, which “% KD Human” value (GATA3 mRNA [1]; average of 3 experiments) is on record?
**A.** Its value is −12 ± 16%.

**Q.** And the “% KD Mouse” value (GATA3 mRNA [2])?
**A.** The value was −2 ± 6%.

**Q.** Which “% KD Human” value (GATA3 mRNA [1]; average of 3 experiments) does the source give for “30254-DC: GATA3 siNA duplex, site 619: sense B GGcAGcAcccGGAcAcGcA TTB (SEQ 61), antisense UGCGuGuccGGGuGcuGccUU (SEQ 62) (sense GGCAGCACCCGGACACGCATT; antisense UGCGUGUCCGGGUGCUGCCUU; chemistry not fully specified)” here?
**A.** The value was −27 ± 15%.

**Q.** What about the “% KD Mouse” value (GATA3 mRNA [2]) of the same substance?
**A.** Its value is 6 ± 5%.

**Q.** What does the source list for “30273-DC: GATA3 siNA duplex, mouse site 1489: sense B cuuAucAAGcccAAGcGAA TTB (SEQ 99), antisense UUCGcuuGGGcuuGAuAAGUU (SEQ 100) (sense CUUAUCAAGCCCAAGCGAATT; antisense UUCGCUUGGGCUUGAUAAGUU; sense: DNA at AGT, 2'-fluoro at CU, [invAb] at 5' end, 3' end, backbone not given here; antisense: chemistry not given here)”?
**A.** % KD Human (GATA3 mRNA [1]; average of 3 experiments): −3 ± 16%; % KD Mouse (GATA3 mRNA [2]): 33 ± 1%
